Results: patent publication US11840686B2, “Modulation of prekallikrein (PKK) expression” (Ionis Pharmaceuticals, Inc., priority 2013, dated 2023)
Strand notation (5' to 3'): a small letter for the sugar, then the base; units joined by * are phosphorothioate-linked, units joined directly phosphodiester-linked; [ ] holds rarer units or linkages, { } end groups; capitals alone tell only the bases. e = 2'-O-(2-methoxyethyl) (MOE); k = constrained ethyl (cEt); [5mC] = 5-methylcytosine; d = 2'-deoxy (DNA)

System: human PKK mRNA
Experiment: Antisense inhibition of human PKK mRNA in HepaRG cells, 1,000 nM, MOE/deoxy/cEt oligonucleotides (Example 3)
Type: cell-based
Procedure, shortened: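 Readout is percent PKK mRNA reduction against untreated controls, by real-time PCR (RTS3454) adjusted for total RNA via RIBOGREEN. Oligonucleotides, phosphorothioate gapmers of 16 nucleosides with cEt, MOE and deoxy sugars, were delivered at 1,000 nM by electroporation to 20,000 HepaRG cells/well for roughly 24 h.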

[1] = Table 28, HepaRG cells, 1,000 nM antisense oligonucleotide, human PKK mRNA
[2] = HepaRG cells, electroporation with 1,000 nM antisense oligonucleotide, approx. 24 hours, PKK mRNA by RT-PCR (RTS3454), relative to untreated control cells, Table 26 experiment
[3] = Table 19, HepaRG cells, electroporation with 1,000 nM antisense oligonucleotide, approximately 24 hours, PKK mRNA by RT-PCR (RTS3454), relative to untreated control cells
[4] = HepaRG cells, 1,000 nM antisense oligonucleotide, Table 29
[5] = Table 21 experiment, HepaRG cells, electroporation with 1,000 nM antisense oligonucleotide, approx. 24 hours, PKK mRNA by RT-PCR (RTS3454), relative to untreated control cells
[6] = Table 22 experiment, HepaRG cells, electroporation with 1,000 nM antisense oligonucleotide, approx. 24 hours, PKK mRNA by RT-PCR (RTS3454), relative to untreated control cells
[7] = Table 20, HepaRG cells, electroporation with 1,000 nM antisense oligonucleotide, approximately 24 hours, PKK mRNA by RT-PCR (RTS3454), relative to untreated control cells
[8] = HepaRG cells, electroporation with 1,000 nM antisense oligonucleotide, approximately 24 hours, primer probe set RTS3454, relative to untreated control cells, experiment of Table 24
[9] = Table 27, HepaRG cells, 1,000 nM antisense oligonucleotide, human PKK mRNA
[10] = PKK mRNA, HepaRG cells, 1,000 nM antisense oligonucleotide, Table 31
[11] = HepaRG cells, electroporation with 1,000 nM antisense oligonucleotide, approx. 24 hours, PKK mRNA by RT-PCR (RTS3454), relative to untreated control cells, Table 25 experiment
[12] = HepaRG cells, electroporation with 1,000 nM antisense oligonucleotide, approximately 24 hours, primer probe set RTS3454, relative to untreated control cells, experiment of Table 23
[13] = Table 30, human PKK mRNA, HepaRG cells, 1,000 nM antisense oligonucleotide

Substance: 548460 (e[5mC]*eT*kA*dT*dA*d[5mC]*d[5mC]*dA*d[5mC]*dG*dG*dT*dA*kA*k[5mC]*eT; antisense) [compound 548460]
- % inhibition [1]: 0%

Substance: 548244 (e[5mC]*eA*kT*dG*d[5mC]*dA*dT*dA*d[5mC]*dT*d[5mC]*dG*d[5mC]*k[5mC]*kT*eT; antisense) [compound 548244]
- % inhibition [2]: 51%

Substance: 548127 (eT*eT*kG*d[5mC]*d[5mC]*dT*dA*dG*dA*d[5mC]*dT*d[5mC]*dT*kG*kG*eA; antisense) [compound 548127]
- % inhibition [3]: 60%

Substance: 548543 (antisense eG*eA*kT*d[5mC]*d[5mC]*dA*d[5mC]*d[5mC]*d[5mC]*dA*dT*dG*dA*k[5mC]*k[5mC]*eT) [compound 548543]
- % inhibition [4]: 32%

Substance: 547827 (eG*eT*kT*d[5mC]*dG*dA*dT*dG*dT*dA*d[5mC]*dT*dT*kT*kT*eG; antisense) [compound 547827]
- % inhibition [5]: 47%

Substance: 547887 (e[5mC]*e[5mC]*kG*dG*dT*dA*d[5mC]*dT*d[5mC]*dT*dG*d[5mC]*d[5mC]*kT*kT*eG; antisense) [compound 547887]
- % inhibition [6]: 99%

Substance: 547853 (antisense eT*eA*kT*dA*dA*dA*dT*dG*dT*d[5mC]*dT*d[5mC]*dG*kA*kT*eG) [compound 547853]
- % inhibition [7]: 0%
- % inhibition [6]: 30%

Substance: 548056 (eG*eT*kG*dT*dA*dA*dT*dT*d[5mC]*dA*dA*dA*dG*kG*kA*eG; antisense) [compound 548056]
- % inhibition [8]: 40%

Substance: 548378 (eG*e[5mC]*kA*dA*dG*dA*dT*dG*d[5mC]*dA*dT*dG*d[5mC]*kA*kG*e[5mC]; antisense) [compound 548378]
- % inhibition [9]: 49%

Substance: 548096 (antisense eG*eT*kG*dT*dT*dT*dG*d[5mC]*dA*dA*dA*d[5mC]*dT*kA*kA*eG) [compound 548096]
- % inhibition [3]: 23%

Substance: 547918 (eA*eA*k[5mC]*d[5mC]*d[5mC]*dT*dG*dG*d[5mC]*dA*dA*d[5mC]*dA*kT*k[5mC]*e[5mC]; antisense) [compound 547918]
- % inhibition [7]: 1%
- % inhibition [6]: 65%

Substance: 548688 (DNA eT*eA*kG*dA*dG*dG*dG*dA*dT*d[5mC]*d[5mC]*d[5mC]*dA*kG*kG*eA) [compound 548688]
- % inhibition [10]: 0%

Substance: 548295 (e[5mC]*eT*k[5mC]*dT*dG*dA*dT*dT*dG*dG*dG*dT*d[5mC]*kA*k[5mC]*e[5mC]; antisense) [compound 548295]
- % inhibition [2]: 26%

Substance: 548165 (e[5mC]*eG*kA*d[5mC]*d[5mC]*dT*d[5mC]*dG*d[5mC]*dA*dT*dT*dG*kT*k[5mC]*eA; antisense) [compound 548165]
- % inhibition [11]: 53%

Substance: 548482 (eG*eG*k[5mC]*dA*dG*dT*dT*dA*dG*dG*d[5mC]*d[5mC]*dA*kG*kG*eA; antisense) [compound 548482]
- % inhibition [1]: 53%

Substance: 548022 (e[5mC]*e[5mC]*kA*d[5mC]*dT*d[5mC]*dT*d[5mC]*d[5mC]*d[5mC]*d[5mC]*dA*dA*kG*kA*eA; antisense) [compound 548022]
- % inhibition [8]: 69%

Substance: 547791 (antisense eA*e[5mC]*kT*dG*dT*dA*dG*d[5mC]*dA*dA*dA*d[5mC]*dA*kA*kG*eG) [compound 547791]
- % inhibition [5]: 49%

Substance: 548041 (eT*eG*kT*dG*dA*dG*dA*dA*dA*dG*dG*dT*dG*kT*kA*eT; antisense) [compound 548041]
- % inhibition [8]: 64%

Substance: 548028 (eG*eG*kT*dG*dT*d[5mC]*d[5mC]*dT*dA*dT*dG*dA*dG*kT*kG*eA; antisense) [compound 548028]
- % inhibition [8]: 38%

Substance: 547962 (antisense eT*eT*kT*dG*d[5mC]*dA*dG*dG*dT*dT*dA*dA*dA*kA*kG*eG) [compound 547962]
- % inhibition [12]: 16%

Substance: 547872 (antisense eT*eG*k[5mC]*dT*dA*dA*d[5mC]*d[5mC]*dT*dT*dA*dG*dA*k[5mC]*kA*e[5mC]) [compound 547872]
- % inhibition [7]: 85%
- % inhibition [6]: 73%

Substance: 547893 (eG*e[5mC]*kA*dA*dT*dT*dG*dT*dT*d[5mC]*d[5mC]*dG*dG*kT*kA*e[5mC]; antisense) [compound 547893]
- % inhibition [7]: 81%
- % inhibition [6]: 80%

Substance: 548235 (eT*e[5mC]*kT*dA*dG*dA*dT*dG*dA*d[5mC]*d[5mC]*dT*dG*kA*kA*eG; antisense) [compound 548235]
- % inhibition [2]: 0%

Substance: 548293 (eG*eT*k[5mC]*dA*d[5mC]*d[5mC]*dA*dG*dA*dA*d[5mC]*d[5mC]*dA*k[5mC]*kA*eT; antisense) [compound 548293]
- % inhibition [2]: 44%

Substance: 548316 (e[5mC]*eT*kG*dT*dT*d[5mC]*dA*dG*dG*dT*dA*dG*d[5mC]*kA*k[5mC]*eA; antisense) [compound 548316]
- % inhibition [9]: 64%

Substance: 548435 (antisense eA*eA*k[5mC]*dA*dA*dT*dA*dT*d[5mC]*dA*d[5mC]*dT*dG*kT*kA*e[5mC]) [compound 548435]
- % inhibition [13]: 19%

Substance: 548313 (eG*e[5mC]*k[5mC]*dT*dT*dT*dG*dA*dG*dG*dG*dA*dG*kT*kG*eG; antisense) [compound 548313]
- % inhibition [9]: 35%

Substance: 548559 (antisense eG*eA*kG*dA*d[5mC]*dT*dG*dA*dA*dG*d[5mC]*d[5mC]*d[5mC]*kT*k[5mC]*eA) [compound 548559]
- % inhibition [4]: 44%

Substance: 547969 (antisense eT*e[5mC]*k[5mC]*d[5mC]*dG*dG*dG*dT*dA*dA*dA*dT*dT*kT*kT*eA) [compound 547969]
- % inhibition [12]: 0%

Substance: 548469 (eT*eT*k[5mC]*d[5mC]*d[5mC]*dT*dA*d[5mC]*d[5mC]*d[5mC]*d[5mC]*dT*dG*kG*kT*eA; antisense) [compound 548469]
- % inhibition [1]: 0%

Substance: 547953 (e[5mC]*eT*kA*dT*dA*dT*d[5mC]*d[5mC]*dA*dG*dA*dT*dA*kT*kG*eG; antisense) [compound 547953]
- % inhibition [12]: 16%

Substance: 548678 (antisense eG*eA*kG*dT*dT*dA*d[5mC]*d[5mC]*dT*dT*dA*d[5mC]*dA*kA*kG*e[5mC]) [compound 548678]
- % inhibition [10]: 22%

Substance: 548078 (eT*e[5mC]*kT*dT*d[5mC]*dA*dT*dT*dT*dG*dT*dT*dA*k[5mC]*k[5mC]*eA; antisense) [compound 548078]
- % inhibition [3]: 36%

Substance: 548471 (eG*e[5mC]*kG*dG*dA*dA*dA*dA*d[5mC]*dT*dG*dG*d[5mC]*k[5mC]*kG*eT; antisense) [compound 548471]
- % inhibition [1]: 17%

Substance: 548215 (eG*e[5mC]*kA*dT*dA*dG*dA*d[5mC]*d[5mC]*d[5mC]*d[5mC]*dA*dA*k[5mC]*kA*eG; antisense) [compound 548215]
- % inhibition [11]: 61%

Substance: 547869 (antisense eA*eA*k[5mC]*d[5mC]*dT*dT*dA*dG*dA*d[5mC]*dA*d[5mC]*dA*kT*kT*eA) [compound 547869]
- % inhibition [7]: 45%
- % inhibition [6]: 77%

Substance: 547864 (antisense eT*eT*kG*dA*d[5mC]*dT*d[5mC]*d[5mC]*dT*d[5mC]*dT*d[5mC]*dA*kT*kA*eT) [compound 547864]
- % inhibition [7]: 53%
- % inhibition [6]: 73%

Substance: 548487 (eT*e[5mC]*k[5mC]*dA*dT*dG*dT*d[5mC]*dA*dG*dA*dG*dT*kT*kG*e[5mC]; antisense) [compound 548487]
- % inhibition [1]: 71%

Substance: 548310 (eG*eA*kG*dG*dA*dG*dT*dT*dG*dG*dT*dT*dT*kA*kG*eT; antisense) [compound 548310]
- % inhibition [9]: 0%

Substance: 548324 (eA*e[5mC]*kA*dT*dA*dA*dA*dT*dT*d[5mC]*d[5mC]*d[5mC]*d[5mC]*kA*k[5mC]*eA; antisense) [compound 548324]
- % inhibition [9]: 29%

Substance: 547973 (antisense eA*eA*kG*dT*d[5mC]*dA*dA*d[5mC]*dT*d[5mC]*d[5mC]*d[5mC]*dG*kG*kG*eT) [compound 547973]
- % inhibition [12]: 62%

Substance: 548588 (eA*eG*k[5mC]*dT*d[5mC]*dA*d[5mC]*dA*d[5mC]*d[5mC]*d[5mC]*dA*dA*kA*kA*eA; antisense) [compound 548588]
- % inhibition [4]: 10%

Substance: 548396 (eT*eA*kA*dT*dG*dA*dG*dT*dG*dG*dG*dT*dT*kA*kG*eG; antisense) [compound 548396]
- % inhibition [13]: 0%

Substance: 548615 (antisense eT*eT*kG*dG*dT*dG*dG*d[5mC]*dG*dG*dG*dA*dT*k[5mC]*kG*eG) [compound 548615]
- % inhibition [10]: 10%

Substance: 548659 (antisense e[5mC]*e[5mC]*kA*dA*d[5mC]*d[5mC]*dT*d[5mC]*dT*dA*dA*dG*dG*k[5mC]*kT*eA) [compound 548659]
- % inhibition [10]: 17%

Substance: 548646 (antisense e[5mC]*eG*kT*dT*dT*d[5mC]*d[5mC]*d[5mC]*dT*d[5mC]*dA*dA*d[5mC]*kT*k[5mC]*e[5mC]) [compound 548646]
- % inhibition [10]: 24%

Substance: 547913 (eG*e[5mC]*kA*dA*d[5mC]*dA*dT*d[5mC]*d[5mC]*dA*d[5mC]*dA*dT*k[5mC]*kT*eG; antisense) [compound 547913]
- % inhibition [7]: 71%
- % inhibition [6]: 61%
